From patent US20260306644A1, “ANTIBODY RECRUITING MOLECULES FOR THE TREATMENT OF CORONAVIRUS DISEASE-19” (priority 2023, published 2026)
“And” between values parts separate entries of the source, which are not always exact repeats. Equal values may be shown once.

What was measured:
[1] = biological target: T1, SARS-CoV-2 Spike A (wild-type) (Severe acute respiratory syndrome coronavirus 2, UniProt P0DTC2); assay: MSD ACE2 competition assay (inhibition of Spike binding with ACE2, ECL), A (wild-type); details: IC50 Wild Type, Wild Type Spike
T1 construct: purchased Meso Scale Diagnostics, LLC V-PLEX SARS-CoV-2 Panel 13 (ACE2) Kit / Panel 23 (ACE2) Kit

SARS-CoV-2 Spike protein = SARS-CoV-2 Spike protein (Severe acute respiratory syndrome coronavirus 2, UniProt P0DTC2); assay: Ternary binding of SARS-CoV-2 Spike protein (293T cells expressing Spike-GFP, IgG-AF647, flow cytometry); type: cell-based; details: 293T cells expressing Spike-GFP; IgG-AF647 10 μg/ml; repeat values/batches listed separately; read-out: SARS-CoV-2 Ternary binding EC50

| Compound | IC50 [1] | EC50 (SARS-CoV-2 Spike protein) |
| --- | --- | --- |
| CC[C@H](C)[C@H](NC(=O)[C@H](CC(C)C)NC(=O)[C@H](CC(=O)O)NC(=O)[C@H](CO)NC(=O)[C@@H](NC(=O)[C@H](CCCNC(=N)N)NC(=O)[C@H](CCSC)NC(=O)[C@H](CO)NC(=O)[C@H](C)NC(=O)[C@H](CCC(=O)O)NC(=O)[C@H](C)NC(=O)[C@H](Cc1c[nH]cn1)NC(=O)CNC(=O)[C@H](CC(C)C)NC(=O)[C@H](CCC(=O)O)NC(=O)[C@H](CC(=O)O)NC(=O)[C@H](CC(C)C)NC(=O)[C@H](CC(C)C)NC(=O)[C@H](CCCNC(=N)N)NC(=O)[C@H](CCSC)NC(=O)[C@@H](NC(=O)[C@H](CCC(=O)O)NC(=O)[C@H](Cc1ccc(O)cc1)NC(=O)[C@@H](NC(=O)[C@H](CCCCN)NC(=O)[C@H](CCC(N)=O)NC(=O)[C@H](CC(C)C)NC(=O)[C@@H](NC(=O)[C@H](Cc1c[nH]c2ccccc12)NC(=O)[C@H](CCC(=O)O)NC(=O)[C@H](CCCCN)NC(=O)[C@H](CC(=O)O)NC(C)=O)[C@@H](C)CC)[C@@H](C)CC)[C@@H](C)CC)C(C)C)C(=O)N[C@@H](Cc1ccc(O)cc1)C(=O)N[C@@H](CCC(=O)O)C(=O)N[C@@H](Cc1ccccc1)C(=O)N[C@@H](CCSC)C(=O)N[C@@H](CCCCN)C(=O)N[C@@H](CCCCN)C(=O)NCC(=O)N[C@@H](CCC(N)=O)C(=O)N[C@@H](C)C(=O)N1CCC[C@H]1C(=O)N[C@@H](CC(=O)O)C(=O)N[C@H]1CSSC[C@@H](C(=O)N[C@H](C(=O)O)[C@@H](C)O)NC(=O)[C@H](Cc2c[nH]c3ccccc23)NC(=O)[C@H](C(C)C)NC(=O)[C@H](CC(C)C)NC(=O)[C@H](CCC(=O)O)NC(=O)CNC(=O)[C@H](CC(C)C)NC(=O)[C@H](Cc2c[nH]cn2)NC(=O)[C@H](Cc2c[nH]c3ccccc23)NC(=O)[C@H](C)NC1=O [Compound 109] | 15.9 nM | 1.2 nM and 2.2 nM |
| CC[C@H](C)[C@H](NC(=O)[C@H](CC(C)C)NC(=O)[C@H](CC(=O)O)NC(=O)[C@H](CO)NC(=O)[C@@H](NC(=O)[C@H](CCCNC(=N)N)NC(=O)[C@H](CCSC)NC(=O)[C@H](CO)NC(=O)[C@H](C)NC(=O)[C@H](CCC(=O)O)NC(=O)[C@H](C)NC(=O)[C@H](Cc1c[nH]cn1)NC(=O)CNC(=O)[C@H](CC(C)C)NC(=O)[C@H](CCC(=O)O)NC(=O)[C@H](CC(=O)O)NC(=O)[C@H](CC(C)C)NC(=O)[C@H](CC(C)C)NC(=O)[C@H](CCCNC(=N)N)NC(=O)[C@H](CCSC)NC(=O)[C@@H](NC(=O)[C@H](CCC(=O)O)NC(=O)[C@H](Cc1ccc(O)cc1)NC(=O)[C@@H](NC(=O)[C@H](CCCCN)NC(=O)[C@H](CCC(N)=O)NC(=O)[C@H](CC(C)C)NC(=O)[C@@H](NC(=O)[C@H](Cc1c[nH]c2ccccc12)NC(=O)[C@H](CCC(=O)O)NC(=O)[C@H](CCCCN)NC(=O)[C@H](CC(=O)O)NC(C)=O)[C@@H](C)CC)[C@@H](C)CC)[C@@H](C)CC)C(C)C)C(=O)N[C@@H](Cc1ccc(O)cc1)C(=O)N[C@@H](CCC(=O)O)C(=O)N[C@@H](Cc1ccccc1)C(=O)N[C@@H](CCSC)C(=O)N[C@@H](CCCCN)C(=O)N[C@@H](CCCCN)C(=O)NCC(=O)N[C@@H](CC(=O)O)C(=O)N[C@H]1CSSC[C@@H](C(=O)N[C@H](C(=O)O)[C@@H](C)O)NC(=O)[C@H](Cc2c[nH]c3ccccc23)NC(=O)[C@H](C(C)C)NC(=O)[C@H](CC(C)C)NC(=O)[C@H](CCC(=O)O)NC(=O)CNC(=O)[C@H](CC(C)C)NC(=O)[C@H](Cc2c[nH]cn2)NC(=O)[C@H](Cc2c[nH]c3ccccc23)NC(=O)[C@H](C)NC1=O [Compound 112] | 40.7 nM | 0.45 nM and 0.55 nM |
| CC[C@H](C)[C@H](NC(=O)[C@H](CC(C)C)NC(=O)[C@H](CC(=O)O)NC(=O)[C@H](CO)NC(=O)[C@@H](NC(=O)[C@H](CCCNC(=N)N)NC(=O)[C@H](CCSC)NC(=O)[C@H](CO)NC(=O)[C@H](C)NC(=O)[C@H](CCC(=O)O)NC(=O)[C@H](C)NC(=O)[C@H](Cc1c[nH]cn1)NC(=O)CNC(=O)[C@H](CC(C)C)NC(=O)[C@H](CCC(=O)O)NC(=O)[C@H](CC(=O)O)NC(=O)[C@H](CC(C)C)NC(=O)[C@H](CC(C)C)NC(=O)[C@H](CCCNC(=N)N)NC(=O)[C@H](CCSC)NC(=O)[C@@H](NC(=O)[C@H](CCC(=O)O)NC(=O)[C@H](Cc1ccc(O)cc1)NC(=O)[C@@H](NC(=O)[C@H](CCCCN)NC(=O)[C@H](CCC(N)=O)NC(=O)[C@H](CC(C)C)NC(=O)[C@@H](NC(=O)[C@H](Cc1c[nH]c2ccccc12)NC(=O)[C@H](CCC(=O)O)NC(=O)[C@H](CCCCN)NC(=O)[C@@H](N)CC(=O)O)[C@@H](C)CC)[C@@H](C)CC)[C@@H](C)CC)C(C)C)C(=O)N[C@@H](Cc1ccc(O)cc1)C(=O)N[C@@H](CCC(=O)O)C(=O)N[C@@H](Cc1ccccc1)C(=O)N[C@@H](CCSC)C(=O)N[C@@H](CCCCN)C(=O)N[C@@H](CCCCN)C(=O)NCC(=O)N[C@@H](CC(=O)O)C(=O)N[C@H]1CSSC[C@@H](C(=O)N[C@H](C(=O)O)[C@@H](C)O)NC(=O)[C@H](Cc2c[nH]c3ccccc23)NC(=O)[C@H](C(C)C)NC(=O)[C@H](CC(C)C)NC(=O)[C@H](CCC(=O)O)NC(=O)CNC(=O)[C@H](CC(C)C)NC(=O)[C@H](Cc2c[nH]cn2)NC(=O)[C@H](Cc2c[nH]c3ccccc23)NC(=O)[C@H](C)NC1=O [Compound 113] | 41.2 nM and 52.9 nM | 0.48 nM and 0.47 nM |
| CC[C@H](C)[C@H](NC(=O)[C@H](CC(C)C)NC(=O)[C@H](CC(=O)O)NC(=O)[C@H](CO)NC(=O)[C@@H](NC(=O)[C@H](CCCNC(=N)N)NC(=O)[C@H](CCSC)NC(=O)[C@H](CO)NC(=O)[C@H](C)NC(=O)[C@H](CCC(=O)O)NC(=O)[C@H](C)NC(=O)[C@H](Cc1c[nH]cn1)NC(=O)CNC(=O)[C@H](CC(C)C)NC(=O)[C@H](CCC(=O)O)NC(=O)[C@H](CC(=O)O)NC(=O)[C@H](CC(C)C)NC(=O)[C@H](CC(C)C)NC(=O)[C@H](CCCNC(=N)N)NC(=O)[C@H](CCSC)NC(=O)[C@@H](NC(=O)[C@H](CCC(=O)O)NC(=O)[C@H](Cc1ccc(O)cc1)NC(=O)[C@@H](NC(=O)[C@H](CCCCN)NC(=O)[C@H](CCC(N)=O)NC(=O)[C@H](CC(C)C)NC(=O)[C@@H](NC(=O)[C@H](Cc1c[nH]c2ccccc12)NC(=O)[C@H](CCC(=O)O)NC(=O)[C@H](CCCCN)NC(=O)[C@@H](N)CC(=O)O)[C@@H](C)CC)[C@@H](C)CC)[C@@H](C)CC)C(C)C)C(=O)N[C@@H](Cc1ccc(O)cc1)C(=O)N[C@@H](CCC(=O)O)C(=O)N[C@@H](Cc1ccccc1)C(=O)N[C@@H](CCSC)C(=O)N[C@@H](CCCCN)C(=O)N[C@@H](CCCCN)C(=O)N[C@@H](CC(=O)O)C(=O)N[C@H]1CSSC[C@@H](C(=O)N[C@H](C(=O)O)[C@@H](C)O)NC(=O)[C@H](Cc2c[nH]c3ccccc23)NC(=O)[C@H](C(C)C)NC(=O)[C@H](CC(C)C)NC(=O)[C@H](CCC(=O)O)NC(=O)CNC(=O)[C@H](CC(C)C)NC(=O)[C@H](Cc2c[nH]cn2)NC(=O)[C@H](Cc2c[nH]c3ccccc23)NC(=O)[C@H](C)NC1=O [Compound 115] | 45.7 nM | 0.34 nM and 0.36 nM and 0.23 nM and 0.26 nM |
| CC[C@H](C)[C@H](NC(C)=O)C(=O)N[C@@H](CC(C)C)C(=O)N[C@@H](CCC(N)=O)C(=O)N[C@@H](CCCCN)C(=O)N[C@H](C(=O)N[C@@H](Cc1ccc(O)cc1)C(=O)N[C@@H](CCC(=O)O)C(=O)N[C@H](C(=O)N[C@@H](CCSC)C(=O)N[C@@H](CCCNC(=N)N)C(=O)N[C@@H](CC(C)C)C(=O)N[C@@H](CC(C)C)C(=O)N[C@@H](CC(=O)O)C(=O)N[C@@H](CCC(=O)O)C(=O)N[C@@H](CC(C)C)C(=O)NCC(=O)N[C@@H](Cc1c[nH]cn1)C(=O)N[C@@H](C)C(=O)N[C@@H](CCC(=O)O)C(=O)N[C@@H](C)C(=O)N[C@@H](CO)C(=O)N[C@@H](CCSC)C(=O)N[C@@H](CCCNC(=N)N)C(=O)N[C@H](C(=O)N[C@@H](CO)C(=O)N[C@@H](CC(=O)O)C(=O)N[C@@H](CC(C)C)C(=O)N[C@H](C(=O)N[C@@H](Cc1ccc(O)cc1)C(=O)N[C@@H](CCC(=O)O)C(=O)N[C@@H](Cc1ccccc1)C(=O)N[C@@H](CCSC)C(=O)N[C@@H](CCCCN)C(=O)N[C@@H](CCCCN)C(=O)NCC(=O)N[C@@H](CC(=O)O)C(=O)N[C@H]1CSSC[C@@H](C(=O)N[C@H](C(=O)O)[C@@H](C)O)NC(=O)[C@H](Cc2c[nH]c3ccccc23)NC(=O)[C@H](C(C)C)NC(=O)[C@H](CC(C)C)NC(=O)[C@H](CCC(=O)O)NC(=O)CNC(=O)[C@H](CC(C)C)NC(=O)[C@H](Cc2c[nH]cn2)NC(=O)[C@H](Cc2c[nH]c3ccccc23)NC(=O)[C@H](C)NC1=O)[C@@H](C)CC)C(C)C)[C@@H](C)CC)[C@@H](C)CC [Compound 116] | > 100 nM (2×) and 114 nM | 9.3 nM and 11 nM |
| CC[C@H](C)[C@H](N)C(=O)N[C@@H](CC(C)C)C(=O)N[C@@H](CCC(N)=O)C(=O)N[C@@H](CCCCN)C(=O)N[C@H](C(=O)N[C@@H](Cc1ccc(O)cc1)C(=O)N[C@@H](CCC(=O)O)C(=O)N[C@H](C(=O)N[C@@H](CCSC)C(=O)N[C@@H](CCCNC(=N)N)C(=O)N[C@@H](CC(C)C)C(=O)N[C@@H](CC(C)C)C(=O)N[C@@H](CC(=O)O)C(=O)N[C@@H](CCC(=O)O)C(=O)N[C@@H](CC(C)C)C(=O)NCC(=O)N[C@@H](Cc1c[nH]cn1)C(=O)N[C@@H](C)C(=O)N[C@@H](CCC(=O)O)C(=O)N[C@@H](C)C(=O)N[C@@H](CO)C(=O)N[C@@H](CCSC)C(=O)N[C@@H](CCCNC(=N)N)C(=O)N[C@H](C(=O)N[C@@H](CO)C(=O)N[C@@H](CC(=O)O)C(=O)N[C@@H](CC(C)C)C(=O)N[C@H](C(=O)N[C@@H](Cc1ccc(O)cc1)C(=O)N[C@@H](CCC(=O)O)C(=O)N[C@@H](Cc1ccccc1)C(=O)N[C@@H](CCSC)C(=O)N[C@@H](CCCCN)C(=O)N[C@@H](CCCCN)C(=O)NCC(=O)N[C@@H](CC(=O)O)C(=O)N[C@H]1CSSC[C@@H](C(=O)N[C@H](C(=O)O)[C@@H](C)O)NC(=O)[C@H](Cc2c[nH]c3ccccc23)NC(=O)[C@H](C(C)C)NC(=O)[C@H](CC(C)C)NC(=O)[C@H](CCC(=O)O)NC(=O)CNC(=O)[C@H](CC(C)C)NC(=O)[C@H](Cc2c[nH]cn2)NC(=O)[C@H](Cc2c[nH]c3ccccc23)NC(=O)[C@H](C)NC1=O)[C@@H](C)CC)C(C)C)[C@@H](C)CC)[C@@H](C)CC [Compound 117] | 54.8 nM and 61.1 nM | 4.9 nM and 4.4 nM |
